The values that follow come from US20060240048A1 (priority 2002, published 2006).

This assay has as its target T1, human cannabinoid CB2 receptor (Homo sapiens, UniProt P34972).
T1 construct: expressed in transfected cells; host or cells: Saccharomyces cerevisiae strain MMY23
Description: Cannabinoid CB2 receptor agonist activity, yeast reporter assay (FDGlu fluorescence).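 As to Emax: 100% equals maximal response of reference agonist HU210.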 The class given is cell-based. To be noted: for Emax: read-out: efficacy value (Emax) at the cloned human cannabinoid CB2 receptor. On the technique in general: In a reporter assay the amount or activity of a reporter protein is the signal.

T1 sequence (P34972 whole entry): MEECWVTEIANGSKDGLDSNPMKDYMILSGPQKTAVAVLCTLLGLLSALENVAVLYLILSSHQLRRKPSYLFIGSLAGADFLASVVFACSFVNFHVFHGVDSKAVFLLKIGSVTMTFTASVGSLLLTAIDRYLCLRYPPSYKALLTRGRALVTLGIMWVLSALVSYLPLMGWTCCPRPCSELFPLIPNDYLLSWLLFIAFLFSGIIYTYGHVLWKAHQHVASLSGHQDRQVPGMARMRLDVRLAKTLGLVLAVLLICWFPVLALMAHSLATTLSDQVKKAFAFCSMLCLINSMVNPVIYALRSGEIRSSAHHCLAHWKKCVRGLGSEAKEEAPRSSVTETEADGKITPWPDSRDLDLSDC

By EC50 is commonly meant the midpoint of the concentration-response curve. Higher therefore signals weaker potency. In general, Emax refers to the maximal effect, on the per cent scale that the assay sets. On to `CC(C)c1cc(Nc2ccc(F)c(Cl)c2)ncc1C(=O)NCC1CCOCC1` [Example 77, 6-(3-Chloro-4-fluoro-phenylamino)-4-isopropyl-N-(tetrahydro-pyran-4-ylmethyl)-nicotinamide], for which the half-maximal effective concentration (EC50) is below 300 nM and the maximal response (Emax) is above 50%.
For `O=C(NCC1CCOCC1)c1cnc(Nc2cccc(Br)c2)cc1C(F)(F)F` [Example 118, N-(Tetrahydropyran-4-yl-methyl)-6-(3-bromophenyl-amino)-4-trifluoromethyl-nicotinamide], in that order: below 300 nM and above 50%.
For `CC(C)c1cc(Nc2cccc(C(F)(F)F)c2)ncc1C(=O)NCC1CCC1` [Example 35, N-Cyclobutylmethyl-6-(3-trifluoromethyl-phenylamino)-4-], the EC50 is below 300 nM and the maximal response (Emax) was above 50%.
On the same counts, the results for `CC(C)c1cc(Nc2cc(Cl)ccc2Cl)ncc1C(=O)NCC1CCOCC1` [Example 87, 6-(2,5-Dichloro-phenylamino)-4-isopropyl-N-(tetrahydro-pyran-4-ylmethyl)-nicotinamide] are below 300 nM and above 50%.
Turning to `CC(C)CNC(=O)c1cnc(Nc2ccc(Cl)c(Cl)c2)cc1C(F)(F)F` [Example 153, N-Isobutyl-6-(3,4-dichloro-phenylamino)-4-trifluoro-methyl-nicotinamide], the EC50 was below 300 nM and the maximal response (Emax) is above 50%.
On the same counts, the results for `O=C(NCC1CCOCC1)c1cnc(Nc2cc(Cl)ccc2O)cc1C(F)(F)F` [Example 170, N-(Tetrahydropyran-4-yl-methyl)-6-(2-hydroxy-5-chloro-phenylamino)-4-trifluoromethyl-nicotinamide] are below 300 nM and above 50%.
Take `CC(C)CNC(=O)c1cnc(Nc2cc(F)ccc2Cl)cc1C(C)C` [Example 274, 6-(2-Chloro-5-fluoro-phenylamino)-N-isobutyl-4-isopropyl-nicotinamide]: the EC50 was below 300 nM and the Emax was above 50%.
For `CC(C)c1cc(Nc2cccc(OC(F)(F)F)c2)ncc1C(=O)NCC1CCCCC1` [Example 15, N-Cyclohexylmethyl-4-isopropyl-6-(3-trifluoromethoxy-phenylamino)-nicotinamide], in that order: below 300 nM and above 50%.
Regarding `O=C(NCC1CCC1)c1cnc(Nc2cccc(F)c2)cc1C(F)(F)F` [Example 129, N-Cyclobutylmethyl-6-(3-fluoro-phenylamino)-4-tri-fluoromethyl-nicotinamide], the EC50 is below 300 nM and the Emax was above 50%.
With `CC(C)c1cc(N(C)c2ccc(Cl)c(Cl)c2)ncc1C(=O)NCC1CCOCC1` [Example 44, 6-[(3,4-Dichloro-phenyl)-methyl-amino]-4-isopropyl-N-(tetrahydro-pyran-4-ylmethyl)-nicotinamide], the Emax is above 50%.
As to `CC(C)(C)c1cc(Nc2cccc(F)c2)ncc1C(=O)NCC1CCOCC1` [Example 72, 4-tert-Butyl-6-(3-fluoro-phenylamino)-N-(tetrahydro-pyran-4-ylmethyl)-nicotinamide], the EC50 is below 300 nM and the Emax is above 50%.
On the same counts, the results for `O=C(NCC1CCCCC1)c1cnc(Nc2cccc(F)c2)cc1C(F)(F)F` [Example 128, N-Cyclohexylmethyl-6-(3-fluoro-phenylamino)-4-tri-fluoromethyl-nicotinamide] are below 300 nM and above 50%.
Turning to `Cc1cc(Cl)ccc1Nc1cc(C(F)(F)F)c(C(=O)NCC2CCCCC2)cn1` [Example 171, N-Cyclohexylmethyl-6-(2-methyl-4-chloro-phenyl-amino)-4-trifluoromethyl-nicotinamide], the EC50 is below 300 nM and the maximal response (Emax) was above 50%.
On the same counts, the results for `O=C(NCC1CCOCC1)c1cnc(Nc2cccc(Cl)c2Cl)cc1C(F)(F)F` [Example 135, N-(Tetrahydropyran-4-yl-methyl)-6-(2,3-dichloro-phenylamino)-4-trifluoro-methyl-nicotinanhide] are below 300 nM and above 50%.
For `Cc1ccc(Nc2cc(C(C)C)c(C(=O)NCC3CCOCC3)cn2)cc1Cl` [Example 85], in that order: below 300 nM and above 50%.
For `CC(C)c1cc(Nc2cccc(OC(F)(F)F)c2)ncc1C(=O)NCC1CCOCC1` [Example 20, 4-Isopropyl-N-(tetrahydro-pyran-4-ylmethyl)-6-(3-trifluoromethoxy-phenylamino) nicotinamide], in that order: below 300 nM and above 50%.
As for `CC(C)c1cc(Nc2cccc(Cl)c2)ncc1C(=O)NCC1CCC1` [Example 6, 6-(3-Chloro-phenylamino)-N-cyclobutylmethyl-4-isopropyl-nicotinamide], the EC50 was below 300 nM and the maximum response (Emax) is above 50%.
On the same counts, the results for `CC(C)c1cc(Nc2ccc(Cl)cc2Br)ncc1C(=O)NCC1CCC1` [Example 256, 6-(2-Bromo-4-chloro-phenylamino)-N-cyclobutylmethyl-4-isopropyl-nicotinamide] are below 300 nM and above 50%.
Turning to `CC(C)CNC(=O)c1cnc(Nc2cccc(Br)c2)cc1C(C)C` [Example 277, 6-(3-Bromo-phenylamino)-N-isobutyl-4-isopropyl-nicotinamide], the half-maximal effective concentration (EC50) is below 300 nM and the Emax was above 50%.
For `CC(C)c1cc(Nc2cccc(Br)c2)ncc1C(=O)NCC1CCCCC1` [Example 12, 6-(3-Bromo-cyclohexylmethyl-4-phenylamino)-N-isopropyl-nicotinamide], in that order: below 300 nM and above 50%.
Regarding `CC(C)c1nc(Nc2cccc(Cl)c2)ccc1C(=O)NCC1CCCCC1` [Example 211, 6-(3-Chloro-phenylamino)-N-cyclohexylmethyl-2-isopropyl-nicotinamide], the concentration for a half-maximal effect (EC50) was below 300 nM and the maximum response (Emax) was above 50%.
On the same counts, the results for `CC(C)c1cc(Nc2ccc(F)cc2Cl)ncc1C(=O)NCC1CCOCC1` [Example 243, 6-(2-Chloro-4-fluoro-phenylamino)-4-isopropyl-N-(tetrahydro-pyran-4-ylmethyl)-nicotinamide] are below 300 nM and above 50%.
Regarding `CC(C)c1nc(Nc2cccc(F)c2)ccc1C(=O)NCC1CCS(=O)(=O)C1` (stereo not drawn) [Example 219, 6-(3-Fluoro-phenylamino)-N-(1,1-dioxo-tetrahydrothiophen-3-ylmethyl)-2-isopropyl-nicotinamide], the EC50 is below 300 nM and the Emax was above 50%.
For `CC(C)c1cc(Nc2ccc(Cl)c(Cl)c2)ncc1C(=O)NCC1CCCC1` [Example 32], in that order: below 300 nM and above 50%.
For the compound `CC(C)c1cc(Nc2cccc(F)c2)ncc1C(=O)NCC1CCC1` [Example 34, N-Cyclobutylmethyl-6-(3-fluoro-phenylamino)-4-isopropyl-nicotinamide], the EC50 was below 300 nM and the Emax is above 50%.
For `O=C(NCC1CCCC1)c1cnc(Nc2ccc(Cl)cc2F)cc1C(F)(F)F` [Example 161, N-Cyclopentylmethyl-6-(2-fluoro-4-chloro-phenyl-amino)-4-trifluoromethyl-nicotinamide], in that order: below 300 nM and above 50%.
